Patent publication US9045527B2, “Small molecule conjugates with dimetal species for protein inhibition” (WILLIAM MARSH RICE UNIVERSITY, priority 2012, dated 2015)
“Also recorded” adds a separate entry of the source. Where no end group is shown, it is not given here.

Assays:
[1] = system: K3a,eRh2 coiled coil; assay: Thermal denaturation of metallopeptide coiled coils monitored by CD; format: physicochemical; settings: for melting temperature (Tm) of coiled coil: equimolar mixture of E3X peptide and K3a,eRh2 in aq buffer, CD 222 nm
Protocol: FIG. 4 is a table detailing the thermal denaturation of metallopeptide coiled coils. The following standard conditions: equimolar mixtures of E3X and K3a,eRh2 in aq buffer (pH 5.9-6.2) were monitored by CD (222 nm) from −5 to 95° C. at 1° C./min. The peptide concentrations are 100 μM. The CD monitored is at 225 nm and in certain embodiments, the peptide concentration is 33 μM.
Rhodium(II) centers are capable of forming stabilizing secondary contacts at the periphery of a protein binding interface while examining the coiled-coil assembly of rhodium(II) metallopeptides with histidine-containing peptides. A rhodium(II) center linked to a coil at positions a and e of a heptad repeat abcdefg (See FIG. 4) would be proximal to position g of the complementary peptide, E3gX.
Circular Dichroism Spectroscopy: Thermal denaturation experiments (−5-105° C. with a gradient of 1° C./min) were performed on a Jasco-J810 spectropolarimeter with a Peltier temperature controller (Jasco PTC423S). Solutions of 1:1 E3-peptide and K3-metallopeptide (both components 100 or 33 μM) in aqueous buffer in a 0.1 cm sealed cell were analyzed, and ellipticity data were acquired at 222 nm (red data points, S-5). When imidazole additive was utilized, ellipticity data were acquired at 225 nm. Temperature denaturation curves were fit to a two-state unfolding model and plotted (black line, S-5) as fraction unfolded vs. temperature as described previously by Lavigne et al.8 Error associated with the non-linear least squared-determined Tm was determined using the freely available “Solver Statistics” macro for Microsoft Excel.

[2] = target: T1, CAL PDZ domain (Homo sapiens, UniProt Q9HD26); assay: HSQC footprinting of 15N-CALP; format: binding; settings: 125-μM peptide, 2.5% (v/v) DMSO
T1 construct: Expression and purification of the WT and mutant CAL PDZ domains were performed according to commonly described and known methods; made in house
Protocol: HSQC spectra of 15N-CALP determined separately (red) and in the presence of 125-μM E^RhVQSTRL (SEQ ID NO:7) metallopeptide (green) in 2.5% (v/v) DMSO.
The chemical shifts (δ) are reported in units of part per million (ppm) relative to solvent peak. HSQC footprinting: 25 μM N-labeled CAL PDZ protein was also subjected to H, N heteronuclear single quantum correlation spectroscopy (HSQC) analysis, as described, except that tris(2-carboxyethyl)phosphine was omitted from the final dialysis buffers. […] HSQC backbone crosspeaks were assigned by comparison with the previously assigned CALP apo spectrum.

[3] = target: N1P1; assay: N1P1 affinity (uM)
Protocol: Table printed on a drawing sheet, Figure 9B
Title: Metallopeptide ligands for PDZ domains
Head of the field: N1P1 affinity (uM)
The patent's description of the figure: FIG. 9A is a table of metallopeptide inhibitors of CALP. [a], inhibitor equilibrium dissociation (Ki) constants were determined for cognate peptide/metallopeptide pairs. […] In embodiment, [c]
First copying reader's note: The fold values (22x, 95x and so on) are printed beside brackets joining each peptide/Rh-peptide pair and are repeated in both rows; the H301A block stands apart at the right, has no printed unit, and its rows are matched to the sequences by their height on the sheet.
Where the first naming reader finds the target: head: N1P1 affinity (uM)

[4] = target: T2, full-length CAL (Homo sapiens, UniProt Q9HD26); assay: Capture (pulldown) inhibition assay in epithelial cell lysate; format: binding; settings: CFBE4lo− cell lysates, BT-iCAL36 bait, n=3
T2 construct: Western blot of native CAL was captured from epithelial lysates; endogenous in cells; host or cells: CFBE41o- epithelial cell lysate
Protocol: Thus, the metalation improves inhibitor potency.
Capture inhibition assays: To determine the ability of inhibitor peptides to displace the interactions of full-length CAL in the presence of the epithelial-cell proteome, a capture inhibition assay was developed. Briefly, using published methods a biotin-conjugated peptide “bait” sequence (BT-iCAL36) was immobilized on streptavidin beads and incubated with clarified lysates of CFBE4lo− cells to capture full-length CAL in the presence of cellular proteins. […] Beads were washed and eluted, and bound proteins were separated by SDS-PAGE and immunoblotted using an α-CAL antibody. Band intensities were separately quantified and averaged (n=3).

[5] = target: T3, CAL PDZ domain (CALP) (Homo sapiens, UniProt Q9HD26); assay: Fluorescence anisotropy inhibition binding assay (displacement of fluorescein-labeled iCAL36 reporter); settings: wild-type CALP
T3 construct: Expression and purification of the WT and mutant CAL PDZ domains were performed according to commonly described and known methods; made in house
Protocol: Protein binding studies: Fluorescence anisotropy inhibition binding assays were performed using standard procedures. […] Following equilibration, fluorescence anisotropy values were determined using a Tecan Infinite M1000 plate reader (n=3). Inhibitor equilibrium dissociation (Ki) constants were estimated as described. DMSO and rhodium(II) acetate were used as negative controls for unlabeled and labeled peptides, respectively.

[6] = target: T4, CALP (Homo sapiens, UniProt Q9HD26); assay: CALP affinity (uM)
T4 construct: Western blot of native CAL was captured from epithelial lysates; endogenous in cells; host or cells: CFBE41o- epithelial cell lysate
Description: Head of the field: CALP affinity (uM)

[7] = target: T4, CALP; assay: Ki (μM)
Description: Head of the field: Ki (μM)

Compound: N[C@@H](CS)C(=O)O [E3gC]
- coiled coil stability ([1]; assembly with K3a,eRh2): decreased stability

Compound: CC(=O)N[C@@H](CCC(=O)O)C(=O)N[C@H](C(=O)N[C@@H](CCC(N)=O)C(=O)N[C@@H](CO)C(=O)N[C@H](C(=O)N[C@@H](CCCNC(=N)N)C(=O)N[C@@H](CC(C)C)C(=O)O)[C@@H](C)O)C(C)C [EVQSTRL]
- mode of inhibition [2]: competitive inhibitors

Compound: CC[C@H](C)[C@H](NC(=O)[C@@H](NC(=O)[C@H](CO)NC(=O)[C@@H](NC(=O)[C@@H]1CCCN1C(=O)[C@H](Cc1c[nH]c2ccccc12)NC(=O)[C@H](CCC(=O)O)NC(C)=O)[C@@H](C)O)[C@@H](C)CC)C(=O)O [EWPTSII]
- Ki [3]: > 500 µM

Compound: CC(=O)N[C@@H](CCC(=O)O)C(=O)N[C@H](C(=O)N[C@@H](CCC(N)=O)C(=O)N[C@@H](CO)C(=O)N[C@H](C(=O)N[C@@H](CCCNC(=N)N)C(=O)N[C@@H](CC(C)C)C(=O)O)[C@@H](C)O)C(C)C [E^RhVQSTRL]
- inhibition of CAL pulldown [4]: improved inhibition; also recorded: dose-dependent inhibition
- mode of inhibition [2]: competitive inhibitors

Compound: CC[C@H](C)[C@H](NC(=O)[C@@H](NC(=O)[C@H](CO)NC(=O)[C@@H](NC(=O)[C@@H]1CCCN1C(=O)[C@H](Cc1c[nH]c2ccccc12)NC(=O)[C@H](CCC(=O)O)NC(C)=O)[C@@H](C)O)[C@@H](C)CC)C(=O)O [E^RhWPTSII]
- Ki [3]: > 50 µM

Compound: CC(=O)[O-].CC(=O)[O-].CC(=O)[O-].CC(=O)[O-].[Rh+2].[Rh+2] [Rh2(OAc)4, rhodium(II) acetate]
- Ki ([5]; n=3, read-out: Ki (inhibitor equilibrium dissociation constant)): 13 ± 5 µM

Compound: CC(=O)N[C@H](C(=O)N[C@@H](CCC(N)=O)C(=O)N[C@@H](CC(=O)O)C(=O)N[C@H](C(=O)N[C@@H](CCCNC(=N)N)C(=O)N[C@@H](CC(C)C)C(=O)O)[C@@H](C)O)C(C)C [VQDTRL]
- CALP affinity [5]: weak CALP affinity
- Ki [3]: 0.7 µM

Compound: Ac-EVQSTRF-OH [EVQSTRF]
- Ki [6]: > 1000 µM

Compound: Ac-EVQSTRF-OH [E^RhVQSTRF]
- Ki [6]: > 15 µM

Compound: Ac-QLDVTR-OH [QLDVTR]
- Ki [7]: > 500 µM

Compound: E3cH: E3 coil peptide with histidine moved to position c (Ac-EISALEKEISHLEQEISALEK)
- melting temperature (Tm) of coiled coil [1]: 47.0 °C

Compound: E3gE: E3 coil peptide with glutamate at position g (Ac-EISALEKEISALEQEISALEK)
- melting temperature (Tm) of coiled coil [1]: 50.2 °C

Compound: E3gF: E3 coil control peptide with non-coordinating phenylalanine at position g (Ac-EISALEKFISALEQEISALEK) [reference compound]
- melting temperature (Tm) of coiled coil [1]: 39.5 °C

Compound: E3gM: E3 coil peptide with methionine at position g (Ac-EISALEKMISALEQEISALEK)
- melting temperature (Tm) of coiled coil [1]: > 70 °C

Compound: QLD^RhVTR: metallopeptide derived from a non-binding, scrambled control sequence (Ac-QLDVTR; also: rhodium(II) metalated, site not placed)
- CALP affinity [5]: comparable
